The values below come from US9023398B2, “Method for improving the aqueous solubility of poorly-soluble substances” (Kabushiki Kaisha Sangi, priority 2009, dated 2015).

The nature of data set [1]: Dissolution test of poorly-soluble substances using distilled water. The format is physicochemical.
A short description of data set [2]: Dissolution test of poorly-soluble substances using 2nd fluid for disintegration test (pH 6.8) of the Japanese Pharmacopoeia. The format is physicochemical.
Method: From initiation of the test, the mixed solution was stirred with a stirrer having a length of 15 mm. The rotation number of the stirrer was 120 rpm, and all of the tests were conducted in a thermostat at 37±0.5° C. Two types of test solutions, namely, distilled water and 2nd fluid for disintegration test (pH 6.8) of the Japanese Pharmacopoeia were used. As such 2nd fluid for disintegration test of the Japanese Pharmacopoeia, a solution prepared by diluting the 10-fold concentration solution of Kanto Kagaku Co., Ltd. with distilled water was used.
A comparative test was carried out in the same manner as that described above with the exception that a poorly-soluble substance or the like was used in an amount equal to that of a substance with improved aqueous solubility, instead of the substance with improved aqueous solubility.
1 mL of the solution was sampled in an Eppendorf centrifuge tube, 1, 3, 10, 30, 60, 180 and 360 minutes after initiation of the test. The thus sampled solution was centrifuged at 12,000 rpm for 5 minutes. […] In the case of the comparative test, the poorly-soluble substance or the like, which had not been dissolved in the solution, was removed. An aliquot of this supernatant was immediately frozen. The frozen sample was freeze-dried, and it was then used as a sample in the measurement of the amount of the substance with improved aqueous solubility, which had been dissolved in the test solution. The dissolved poorly-soluble substance was measured mainly using a dual wavelength absorption photometer.
[3] abbreviates: after dissolution test for 360 minutes, distilled water, 37±0.5° C.
Where [4] appears, read: after dissolution test for 360 minutes, Second disintegration test medium (pH 6.8), 37±0.5° C.
[5] abbreviates: 2nd fluid for disintegration test, elution time 3 min.
[6] abbreviates: 2nd fluid for disintegration test, elution time 10 min.
[7] abbreviates: 2nd fluid for disintegration test, elution time 30 min.
Setting [8] is: 2nd fluid for disintegration test, elution time 120 min.
Setting [9] is: 2nd fluid for disintegration test, elution time 360 min.
Setting [10] is: 2nd fluid for disintegration test, elution time 1 min.

In the case of `CCC1(c2ccccc2)C(=O)NCNC1=O` [compound 14, Primidone], the Dissolved amount in data set [1] (setting [3]) came to 180.3 µg/mL; in data set [2] (setting [4]), 335.2 µg/mL.

Consider `Oc1ncnc2[nH]ncc12` [compound 39, Allopurinol], for which the Dissolved amount is 578.2 µg/mL in data set [1] (Allopurinol, water, elution time 3 min); 679.4 µg/mL in data set [1] (Allopurinol, water, elution time 10 min); 773.9 µg/mL in data set [1] (Allopurinol, water, elution time 30 min); 741.5 µg/mL in data set [1] (Allopurinol, water, elution time 120 min); 712.5 µg/mL in data set [1] (Allopurinol, water, elution time 360 min); 565.4 µg/mL in data set [2] (Allopurinol, 2nd fluid for disintegration test, elution time 3 min). Also, the Dissolved amount was 672.6 µg/mL in data set [2] (Allopurinol, 2nd fluid for disintegration test, elution time 10 min); 725.7 µg/mL in data set [2] (Allopurinol, 2nd fluid for disintegration test, elution time 30 min); 722.8 µg/mL in data set [2] (Allopurinol, 2nd fluid for disintegration test, elution time 120 min); 696.1 µg/mL in data set [2] (Allopurinol, 2nd fluid for disintegration test, elution time 360 min).

Turning to `O=C(CCCN1CCC(O)(c2ccc(Cl)cc2)CC1)c1ccc(F)cc1` [compound 46, Haloperidol], the Dissolved amount in data set [1] (Haloperidol, water, elution time 3 min) amounted to 8.2 µg/mL; in data set [1] (Haloperidol, water, elution time 10 min) it was 10.0 µg/mL; in data set [1] (Haloperidol, water, elution time 30 min), 11.3 µg/mL; in data set [1] (Haloperidol, water, elution time 360 min), 13.1 µg/mL; in data set [2] (Haloperidol, 2nd fluid for disintegration test, elution time 3 min), 23.9 µg/mL; in data set [2] (Haloperidol, 2nd fluid for disintegration test, elution time 10 min), 35.6 µg/mL. The Dissolved amount in data set [2] (Haloperidol, 2nd fluid for disintegration test, elution time 120 min) was determined as 50.1 µg/mL; in data set [2] (Haloperidol, 2nd fluid for disintegration test, elution time 360 min) it was 48.9 µg/mL.

As for `Nc1nc(N)c2nc(-c3ccccc3)c(N)nc2n1` [6-1, Triamterene], the Dissolved amount in data set [1] (setting [3]) stood at 21.3 µg/mL; in data set [2] (setting [4]) it was 18.4 µg/mL.

As for `OCCN(CCO)c1nc(N2CCCCC2)c2nc(N(CCO)CCO)nc(N3CCCCC3)c2n1` [compound 31, Dipyridamole], the Dissolved amount in data set [1] (water, elution time 3 min) came out at 7.8 µg/mL; in data set [1] (water, elution time 10 min), 7.9 µg/mL; in data set [1] (water, elution time 30 min), 8.0 µg/mL; in data set [1] (water, elution time 120 min) it was 8.5 µg/mL; in data set [1] (water, elution time 360 min), 8.2 µg/mL; in data set [2] (Dipyridamole, 2nd fluid for disintegration test, elution time 3 min) it was 6.5 µg/mL. Moreover, the Dissolved amount in data set [2] (Dipyridamole, 2nd fluid for disintegration test, elution time 10 min) stood at 6.5 µg/mL; in data set [2] (Dipyridamole, 2nd fluid for disintegration test, elution time 30 min), 8.3 µg/mL; in data set [2] (Dipyridamole, 2nd fluid for disintegration test, elution time 120 min), 8.5 µg/mL; in data set [2] (Dipyridamole, 2nd fluid for disintegration test, elution time 360 min) it was 9.2 µg/mL.

As for `O=C1NC(=O)C(c2ccccc2)(c2ccccc2)N1` [compound 21, Phenyloin], the Dissolved amount in data set [1] (water, elution time 3 min) stood at 26.5 µg/mL; in data set [1] (water, elution time 10 min), 23.3 µg/mL; in data set [1] (water, elution time 360 min) it was 24.1 µg/mL; in data set [2] (setting [5]), 17.4 µg/mL; in data set [2] (setting [6]), 42.1 µg/mL; in data set [2] (setting [7]) it was 50.7 µg/mL. In addition, the Dissolved amount in data set [2] (setting [8]) worked out at 27.2 µg/mL; in data set [2] (setting [9]), 32.5 µg/mL.

For `CC(=O)SC[C@@H](C)C(=O)N1CCC[C@H]1C(=O)N[C@@H](Cc1ccccc1)C(=O)O` [compound 24, Alacepril], the Dissolved amount in data set [1] (water, elution time 3 min) turned out to be 526.2 µg/mL; in data set [1] (water, elution time 10 min), 805.6 µg/mL; in data set [1] (water, elution time 30 min), 931.2 µg/mL; in data set [1] (water, elution time 120 min), 994.9 µg/mL; in data set [1] (water, elution time 360 min), 996.5 µg/mL; in data set [2] (setting [5]) it was 2311.1 µg/mL. The Dissolved amount in data set [2] (setting [7]) was found to be 2525.0 µg/mL.

In the case of `NC(N)=Nc1nc(CSCCC(N)=NS(N)(=O)=O)cs1` [Comparative Example 17, Famotidine], the Dissolved amount worked out at 1162.9 µg/mL in data set [1] (water, elution time 1 min); 1416.8 µg/mL in data set [1] (water, elution time 3 min); 1502.6 µg/mL in data set [1] (water, elution time 10 min); 1566.8 µg/mL in data set [1] (water, elution time 30 min); 1565.8 µg/mL in data set [1] (water, elution time 60 min); 1509.8 µg/mL in data set [1] (water, elution time 180 min). Also, the Dissolved amount in data set [1] (water, elution time 360 min) stood at 1497.4 µg/mL; in data set [2] (setting [10]) it was 1980.2 µg/mL; in data set [2] (setting [5]) it was 2286.6 µg/mL; in data set [2] (setting [6]) it was 2541.7 µg/mL; in data set [2] (setting [7]), 2600.9 µg/mL; in data set [2] (2nd fluid for disintegration test, elution time 60 min), 2667.9 µg/mL. The compound further came in with a Dissolved amount in data set [2] (setting [9]) of 2410.4 µg/mL.

On to `CC(=O)Oc1ccccc1C(=O)O` [Comparative Example 1-3, Aspirin], for which the Dissolved amount in data set [1] (setting [3]) was determined as 3110.4 µg/mL; in data set [1] (water, elution time 1 min), 1831.9 µg/mL; in data set [1] (water, elution time 3 min), 2934.9 µg/mL; in data set [1] (water, elution time 10 min), 2985.3 µg/mL; in data set [1] (water, elution time 60 min) it was 3105.7 µg/mL; in data set [1] (water, elution time 180 min), 3108.1 µg/mL. Moreover, the Dissolved amount was 3110.4 µg/mL in data set [1] (water, elution time 360 min); 252.7 µg/mL in data set [2] (setting [10]); 1020.4 µg/mL in data set [2] (setting [5]); 5352.3 µg/mL in data set [2] (setting [6]); 5963.6 µg/mL in data set [2] (setting [7]); 6458.1 µg/mL in data set [2] (2nd fluid for disintegration test, elution time 180 min). Further, the Dissolved amount in data set [2] (setting [9]) is 8552.7 µg/mL; in data set [2] (setting [4]), 6552.7 µg/mL.

For `CCCN(CCC)S(=O)(=O)c1ccc(C(=O)O)cc1` [compound 38, Probenecid], the Dissolved amount in data set [1] (Probenecid, water, elution time 3 min) amounted to 10.7 µg/mL; in data set [1] (Probenecid, water, elution time 10 min), 22.7 µg/mL; in data set [1] (Probenecid, water, elution time 30 min), 33.4 µg/mL; in data set [1] (Probenecid, water, elution time 120 min), 39.8 µg/mL; in data set [1] (Probenecid, water, elution time 360 min), 37.5 µg/mL; in data set [2] (Probenecid, 2nd fluid for disintegration test, elution time 3 min), 386.2 µg/mL. For the same compound, the Dissolved amount in data set [2] (Probenecid, 2nd fluid for disintegration test, elution time 10 min) amounted to 1107.2 µg/mL; in data set [2] (Probenecid, 2nd fluid for disintegration test, elution time 30 min) it was 1315.0 µg/mL; in data set [2] (Probenecid, 2nd fluid for disintegration test, elution time 120 min), 2619.5 µg/mL; in data set [2] (Probenecid, 2nd fluid for disintegration test, elution time 360 min), 3715.9 µg/mL.

Regarding `COc1ccc2[nH]c([S+]([O-])Cc3ncc(C)c(OC)c3C)nc2c1` (centres unmarked) [4-1, Omeprazole], the values for the Dissolved amount in data set [1] (setting [3]) and in data set [2] (setting [4]) were 141.6 µg/mL and 169.9 µg/mL, respectively.

As for `CC(=O)Nc1nnc(S(N)(=O)=O)s1` [compound 23, Acetazolamide], the Dissolved amount is 1040.6 µg/mL in data set [1] (water, elution time 3 min); 1238.7 µg/mL in data set [1] (water, elution time 10 min); 1244.8 µg/mL in data set [1] (water, elution time 30 min); 1251.4 µg/mL in data set [1] (water, elution time 120 min); 1212.0 µg/mL in data set [1] (water, elution time 360 min); 1331.6 µg/mL in data set [2] (setting [5]). For the same compound, the values for the Dissolved amount in data set [2] (setting [8]) and in data set [2] (setting [9]) were 1721.6 µg/mL and 1654.9 µg/mL, respectively.

As for `Cc1ccc(S(=O)(=O)NC(=O)NN2CC3CCCC3C2)cc1` (centres unmarked) [compound 32, Gliclazide], the Dissolved amount in data set [1] (Gliclazide, water, elution time 3 min) came to 11.1 µg/mL; in data set [1] (Gliclazide, water, elution time 10 min) it was 26.3 µg/mL; in data set [1] (Gliclazide, water, elution time 30 min), 35.4 µg/mL; in data set [1] (Gliclazide, water, elution time 120 min) it was 38.8 µg/mL; in data set [1] (Gliclazide, water, elution time 360 min), 39.3 µg/mL; in data set [2] (Gliclazide, 2nd fluid for disintegration test, elution time 3 min), 80.1 µg/mL. The Dissolved amount in data set [2] (Gliclazide, 2nd fluid for disintegration test, elution time 30 min) turned out to be 296.1 µg/mL; in data set [2] (Gliclazide, 2nd fluid for disintegration test, elution time 120 min), 420.2 µg/mL; in data set [2] (Gliclazide, 2nd fluid for disintegration test, elution time 360 min), 429.4 µg/mL.

With `CC[C@H]1OC(=O)[C@H](C)[C@@H](O[C@H]2C[C@@](C)(OC)[C@@H](O)[C@H](C)O2)[C@H](C)[C@@H](O[C@@H]2O[C@H](C)C[C@H](N(C)C)[C@H]2O)[C@](C)(O)C[C@@H](C)C(=O)[C@H](C)[C@@H](O)[C@]1(C)O` [compound 28, Erythromycin], the Dissolved amount in data set [1] (water, elution time 3 min) amounted to 635.0 µg/mL; in data set [1] (water, elution time 10 min) it was 861.6 µg/mL; in data set [1] (water, elution time 30 min) it was 944.7 µg/mL; in data set [1] (water, elution time 120 min) it was 927.7 µg/mL; in data set [1] (water, elution time 360 min), 846.1 µg/mL; in data set [2] (setting [6]), 4984.2 µg/mL. The Dissolved amount in data set [2] (setting [7]) turned out to be 5103.6 µg/mL; in data set [2] (setting [8]), 5904.1 µg/mL; in data set [2] (setting [9]) it was 6044.7 µg/mL.

Turning to `CN/C(=N/CCSCc1nc[nH]c1C)NC#N` [compound 19, Cimetidine], the Dissolved amount in data set [1] (Dissolution test using water, elution time 10 min) amounted to 8160.2 µg/mL; in data set [1] (Dissolution test using water, elution time 30 min) it was 7564.5 µg/mL; in data set [1] (Dissolution test using water, elution time 120 min), 7898.3 µg/mL; in data set [1] (Dissolution test using water, elution time 360 min) it was 7166.4 µg/mL; in data set [2] (setting [5]) it was 8676.7 µg/mL; in data set [2] (setting [8]) it was 9475.2 µg/mL. The compound also had a Dissolved amount in data set [2] (setting [9]) of 8810.0 µg/mL.
